*1 amine or outer side, *2 acyl side, *3 side chain or, on linkers, in order; H or OH if unused. Where a SMILES comes first, the peptide text is derived from it. Bridges are numbered along the chain shown (N, C = ends). [ ]: non-standard residue; d: D form. Trp(5-Cl) = N[C@@H](Cc1c[nH]c2ccc(Cl)cc12)C(=O)O; Trp(5-OH) = N[C@@H](Cc1c[nH]c2ccc(O)cc12)C(=O)O; Pyridine(2,6-diCH2) = c1cc(C[*:1])nc(C[*:2])c1; Trp(7-F) = N[C@@H](Cc1c[nH]c2c(F)cccc12)C(=O)O; X22 = O=C([C@H](Cc1cccc(Cl)c1Cl)N[*:1])[*:2]; Hyp = O=C(O)[C@@H]1C[C@@H](O)CN1; NMeE = CN[C@@H](CCC(=O)O)C(=O)O; Thz = O=C(O)[C@@H]1CSCN1; Thp = NC1(C(=O)O)CCOCC1
Target: T1, GIPR (CHO-K1-hGIPR cells) (Homo sapiens, UniProt P48546)
T1 construct: host or cells: CHO-K1
T1 sequence (P48546 22-466): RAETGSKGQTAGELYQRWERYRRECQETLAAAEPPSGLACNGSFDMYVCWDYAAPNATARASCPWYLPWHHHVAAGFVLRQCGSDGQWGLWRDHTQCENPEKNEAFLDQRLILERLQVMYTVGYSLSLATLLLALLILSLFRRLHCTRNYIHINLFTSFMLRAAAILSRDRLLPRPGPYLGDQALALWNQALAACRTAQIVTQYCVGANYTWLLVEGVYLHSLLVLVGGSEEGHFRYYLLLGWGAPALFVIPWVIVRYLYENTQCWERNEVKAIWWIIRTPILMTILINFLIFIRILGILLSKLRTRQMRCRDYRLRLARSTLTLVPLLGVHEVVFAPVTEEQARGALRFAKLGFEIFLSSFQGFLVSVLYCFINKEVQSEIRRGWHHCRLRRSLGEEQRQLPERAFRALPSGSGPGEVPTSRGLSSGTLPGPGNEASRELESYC
Assay: FACS binding assay
Conditions: competition with 20 nM GIP-057, 4° C., 1 hour, read-out: pIC50 Category (converted)
Procedure, shortened: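 Median fluorescence in the APC channel, measured on washed CHO-K1 cells overexpressing human GIPR, was fitted by four-parameter logistic regression against peptide concentration to yield EC50 or IC50 values. Secondary labelling used APC-streptavidin (1 μg/mL, 30 min, ice).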

IC50, < 10 nM:
CC[C@H](C)[C@@H]1NC(=O)[C@H](CC(C)C)NC(=O)C2(CCOCC2)NC(=O)[C@@H](NC(=O)[C@H](CC(C)C)NC(=O)[C@H](CCC(=O)O)N(C)C(=O)[C@@H]2C[C@@H](O)CN2C(=O)[C@H](Cc2c[nH]c3ccc(Cl)cc23)NC(=O)[C@H](Cc2c[nH]c3ccccc23)NC(=O)[C@H](CC(=O)O)NC(C)=O)CSCc2cccc(n2)CSC[C@@H](C(N)=O)NC1=O [GIP-217, Ac-Asp-Trp-5Clw-Hyp-Nme-Leu-[Cys(2Lut)-Thp-Leu-Ile-Cys]-NH2] (Ac-DW[Trp(5-Cl)][Hyp][NMeE]LC[Thp]LIC-NH2; linker 7-11 via Pyridine(2,6-diCH2))
CC[C@H](C)[C@@H]1NC(=O)[C@H](CC(C)C)NC(=O)C2(CCOCC2)NC(=O)[C@@H](NC(=O)[C@@H](NC(=O)[C@H](CCC(=O)O)NC(=O)[C@@H]2C[C@@H](O)CN2C(=O)[C@H](Cc2c[nH]c3ccc(Cl)cc23)NC(=O)[C@H](Cc2c[nH]c3ccccc23)NC(=O)[C@H](CC(=O)O)NC(C)=O)[C@@H](C)CC)CSCc2cccc(n2)CSC[C@@H](C(N)=O)NC1=O [GIP-218, Ac-Asp-Trp-5Clw-Hyp-Glu-Ile-[Cys(2Lut)-Thp-Leu-Ile-Cys]-NH2] (Ac-DW[Trp(5-Cl)][Hyp]EIC[Thp]LIC-NH2; linker 7-11 via Pyridine(2,6-diCH2))
CC[C@H](C)[C@@H]1NC(=O)[C@H](CC(C)C)NC(=O)C2(CCOCC2)NC(=O)[C@@H](NC(=O)[C@@H](NC(=O)[C@H](CCC(=O)O)NC(=O)[C@@H]2C[C@@H](O)CN2C(=O)[C@H](Cc2c[nH]c3ccc(Cl)cc23)NC(=O)[C@H](Cc2c[nH]c3ccccc23)NC(=O)[C@H](CC(=O)O)NC(C)=O)C(C)C)CSCc2cccc(n2)CSC[C@@H](C(N)=O)NC1=O [GIP-219, Ac-Asp-Trp-5Clw-Hyp-Glu-Val-[Cys(2Lut)-Thp-Leu-Ile-Cys]-NH2] (Ac-DW[Trp(5-Cl)][Hyp]EVC[Thp]LIC-NH2; linker 7-11 via Pyridine(2,6-diCH2))
CC[C@H](C)[C@@H]1NC(=O)[C@H](CC(C)C)NC(=O)C2(CCOCC2)NC(=O)[C@@H](NC(=O)[C@@H](CC(C)C)NC(=O)[C@H](CCC(=O)O)NC(=O)[C@@H]2C[C@@H](O)CN2C(=O)[C@H](Cc2c[nH]c3ccc(Cl)cc23)NC(=O)[C@H](Cc2c[nH]c3ccc(O)cc23)NC(=O)[C@H](CC(=O)O)NC(C)=O)CSCc2cccc(n2)CSC[C@@H](C(N)=O)NC1=O [GIP-220, Ac-Asp-Hyw-5Clw-Hyp-Glu-leu-[Cys(2Lut)-Thp-Leu-Ile-Cys]-NH2] (Ac-D[Trp(5-OH)][Trp(5-Cl)][Hyp]E[dL]C[Thp]LIC-NH2; linker 7-11 via Pyridine(2,6-diCH2))
CC[C@H](C)[C@@H]1NC(=O)[C@H](CC(C)C)NC(=O)C2(CCOCC2)NC(=O)[C@@H](NC(=O)[C@@H](CC(C)C)NC(=O)[C@H](CCC(=O)O)NC(=O)[C@@H]2C[C@@H](O)CN2C(=O)[C@H](Cc2c[nH]c3ccc(Cl)cc23)NC(=O)[C@H](Cc2c[nH]c3c(F)cccc23)NC(=O)[C@H](CC(=O)O)NC(C)=O)CSCc2cccc(n2)CSC[C@@H](C(N)=O)NC1=O [GIP-221, Ac-Asp-7Fw-5Clw-Hyp-Glu-leu-[Cys(2Lut)-Thp-Leu-Ile-Cys]-NH2] (Ac-D[Trp(7-F)][Trp(5-Cl)][Hyp]E[dL]C[Thp]LIC-NH2; linker 7-11 via Pyridine(2,6-diCH2))
CC[C@H](C)[C@@H]1NC(=O)[C@H](CC(C)C)NC(=O)C2(CCOCC2)NC(=O)[C@@H](NC(=O)[C@@H](CC(C)C)NC(=O)[C@H](CCC(=O)O)NC(=O)[C@@H]2CSCN2C(=O)[C@H](Cc2c[nH]c3ccc(Cl)cc23)NC(=O)[C@H](Cc2c[nH]c3ccccc23)NC(=O)[C@H](CC(=O)O)NC(C)=O)CSCc2cccc(n2)CSC[C@@H](C(N)=O)NC1=O [GIP-222, Ac-Asp-Trp-5Clw-Eaz-Glu-leu-[Cys(2Lut)-Thp-Leu-Ile-Cys]-NH2] (Ac-DW[Trp(5-Cl)][Thz]E[dL]C[Thp]LIC-NH2; linker 7-11 via Pyridine(2,6-diCH2))
CC[C@H](C)[C@@H]1NC(=O)[C@H](CC(C)C)NC(=O)C2(CCOCC2)NC(=O)[C@@H](NC(=O)[C@H](CC(C)C)NC(=O)[C@@H](CCC(=O)O)NC(=O)[C@@H]2C[C@@H](O)CN2C(=O)[C@H](Cc2c[nH]c3ccc(Cl)cc23)NC(=O)[C@H](Cc2c[nH]c3ccccc23)NC(=O)[C@H](CC(=O)O)NC(C)=O)CSCc2cccc(n2)CSC[C@@H](C(N)=O)NC1=O [GIP-223, Ac-Asp-Trp-5Clw-Eaz-Glu-leu-[Cys(2Lut)-Thp-Leu-Ile-Cys]-NH2] (Ac-DW[Trp(5-Cl)][Hyp][dE]LC[Thp]LIC-NH2; linker 7-11 via Pyridine(2,6-diCH2))
CC[C@H](C)[C@@H]1NC(=O)[C@H](CC(C)C)NC(=O)C2(CCOCC2)NC(=O)[C@@H](NC(=O)[C@@H](CC(C)C)NC(=O)[C@H](CCC(=O)O)NC(=O)[C@@H]2C[C@@H](O)CN2C(=O)[C@H](Cc2c[nH]c3ccc(Cl)cc23)NC(=O)[C@H](Cc2ccccc2)NC(=O)[C@H](CC(=O)O)NC(C)=O)CSCc2cccc(n2)CSC[C@@H](C(N)=O)NC1=O [GIP-224, Ac-Asp-Phe-5Clw-Hyp-Glu-leu-[Cys(2Lut)-Thp-Leu-Ile-Cys]-NH2] (Ac-DF[Trp(5-Cl)][Hyp]E[dL]C[Thp]LIC-NH2; linker 7-11 via Pyridine(2,6-diCH2))
CC[C@H](C)[C@@H]1NC(=O)[C@H](CC(C)C)NC(=O)C2(CCOCC2)NC(=O)[C@@H](NC(=O)[C@@H](CC(C)C)NC(=O)[C@H](CCC(=O)O)NC(=O)[C@@H]2C[C@@H](O)CN2C(=O)[C@H](Cc2c[nH]c3ccc(Cl)cc23)NC(=O)[C@H](Cc2cccc(Cl)c2Cl)NC(=O)[C@H](CC(=O)O)NC(C)=O)CSCc2cccc(n2)CSC[C@@H](C(N)=O)NC1=O [GIP-226, Ac-Asp-Egp-5Clw-Hyp-Glu-leu-[Cys(2Lut)-Thp-Leu-Ile-Cys]-NH2] (Ac-D[X22][Trp(5-Cl)][Hyp]E[dL]C[Thp]LIC-NH2; linker 7-11 via Pyridine(2,6-diCH2))
CC[C@H](C)[C@@H]1NC(=O)[C@H](CC(C)C)NC(=O)C2(CCOCC2)NC(=O)[C@@H](NC(=O)[C@@H](CC(C)C)NC(=O)[C@H](CCC(=O)O)NC(=O)[C@@H]2C[C@@H](O)CN2C(=O)[C@H](Cc2c[nH]c3c(F)cccc23)NC(=O)[C@H](Cc2c[nH]c3ccccc23)NC(=O)[C@H](CC(=O)O)NC(C)=O)CSCc2cccc(n2)CSC[C@@H](C(N)=O)NC1=O [GIP-227, Ac-Asp-Trp-7Fw-Hyp-Glu-leu-[Cys(2Lut)-Thp-Leu-Ile-Cys]-NH2] (Ac-DW[Trp(7-F)][Hyp]E[dL]C[Thp]LIC-NH2; linker 7-11 via Pyridine(2,6-diCH2))
CC[C@H](C)[C@@H]1NC(=O)[C@H](CC(C)C)NC(=O)[C@H](Cc2ccccc2)NC(=O)[C@@H](NC(=O)[C@@H](CC(C)C)NC(=O)[C@H](CCC(=O)O)NC(=O)[C@@H]2C[C@@H](O)CN2C(=O)[C@H](Cc2c[nH]c3ccc(Cl)cc23)NC(=O)[C@H](Cc2c[nH]c3ccccc23)NC(=O)[C@H](CC(=O)O)NC(C)=O)CSCc2cccc(n2)CSC[C@@H](C(N)=O)NC1=O [GIP-228, Ac-Asp-Trp-5Clw-Hyp-Glu-leu-[Cys(2Lut)-Phe-Leu-Ile-Cys]-NH2] (Ac-DW[Trp(5-Cl)][Hyp]E[dL]CFLIC-NH2; linker 7-11 via Pyridine(2,6-diCH2))

Reference: patent publication US20250296971A1, “GASTRIC INHIBITORY PEPTIDE RECEPTOR LIGANDS” (priority 2021, published 2025)
